Measured values taken from the supplement of paper PMC10307832.

Tests used:
Experiment in all cases: relative viability (nuclei count vs DMSO), 5 days (fraction); higher = more cells survive
Selisistat + Decitabine = compound: C1CC(C2=C(C1)C3=C(N2)C=CC(=C3)Cl)C(=O)N [Selisistat] + Nc1ncn([C@H]2C[C@H](O)[C@@H](CO)O2)c(=O)n1 [Decitabine] (partner 2 µM)
Outline: (§1)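 Each reported value is a median over duplicate plates. It expresses relative viability: treated-well nuclei count divided by vehicle-well nuclei count. Lung cancer cell lines in 1536-well plates were dosed by pin tool a day after seeding, alone with one drug or with a fixed anchor-drug dose plus five library-drug doses (not always all listed) in √10 steps, and nuclei were counted after 5 days.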

Serdemetan + OSI-027 = compound: c1ccc2c(CCNc3ccc(Nc4ccncc4)cc3)c[nH]c2c1 [Serdemetan] + COc1cccc2cc(-c3nc([C@H]4CC[C@H](C(=O)O)CC4)n4ncnc(N)c34)[nH]c12 [OSI-027] (partner 0.5 µM)
Outline: as §1

Selisistat + Crizotinib = compound: C1CC(C2=C(C1)C3=C(N2)C=CC(=C3)Cl)C(=O)N [Selisistat] + C[C@@H](Oc1cc(-c2cnn(C3CCNCC3)c2)cnc1N)c1c(Cl)ccc(F)c1Cl [Crizotinib] (partner 1 µM)
Outline: as §1

Selisistat + OSI-027 = compound: C1CC(C2=C(C1)C3=C(N2)C=CC(=C3)Cl)C(=O)N [Selisistat] + COc1cccc2cc(-c3nc([C@H]4CC[C@H](C(=O)O)CC4)n4ncnc(N)c34)[nH]c12 [OSI-027] (partner 0.5 µM)
Outline: as §1

Cell Line	relative viability (Selisistat + Decitabine; first compound 0.4 µM)	relative viability (Selisistat + Decitabine; first compound 1.265 µM)	relative viability (Selisistat + Decitabine; first compound 12.65 µM)	relative viability (Selisistat + Decitabine; first compound 40 µM)	relative viability (Serdemetan + OSI-027; first compound 0.04 µM)	relative viability (Serdemetan + OSI-027; first compound 0.1265 µM)	relative viability (Serdemetan + OSI-027; first compound 0.4 µM)	relative viability (Serdemetan + OSI-027; first compound 1.265 µM)	relative viability (Serdemetan + OSI-027; first compound 4 µM)	relative viability (Selisistat + Crizotinib; first compound 0.4 µM)	relative viability (Selisistat + Crizotinib; first compound 1.265 µM)	relative viability (Selisistat + Crizotinib; first compound 4 µM)	relative viability (Selisistat + Crizotinib; first compound 12.65 µM)	relative viability (Selisistat + Crizotinib; first compound 40 µM)	relative viability (Selisistat + OSI-027; first compound 0.4 µM)	relative viability (Selisistat + OSI-027; first compound 1.265 µM)	relative viability (Selisistat + OSI-027; first compound 4 µM)	relative viability (Selisistat + OSI-027; first compound 12.65 µM)	relative viability (Selisistat + OSI-027; first compound 40 µM)	relative viability (Selisistat + Decitabine; first compound 4 µM)
A-427	0.578	0.575	0.655	0.637	0.526	0.509	0.539	0.455	0.36	0.874	0.819	0.841	0.917	0.921	0.455	0.432	0.301	0.421	0.57	–
NCI-H2347	0.695	0.633	0.677	0.624	0.412	0.501	0.431	0.4	0.258	0.814	0.946	0.566	0.813	0.84	0.61	0.403	0.246	0.482	0.46	–
NCI-H1355	0.336	0.383	0.338	0.388	0.465	0.452	0.35	0.35	0.382	1.01	1.08	–	1.08	1.21	0.465	0.426	0.281	0.407	0.404	0.345
NCI-H358	0.248	0.226	0.212	0.218	0.725	0.816	0.969	0.487	0.536	0.586	0.526	–	0.621	0.613	0.926	0.802	0.363	0.709	0.905	0.195
